These results are taken from patent US20260108615A1, “SELF-ASSEMBLED MUCOADHESIVE BIOPOLYMER PARTICLE RELEASE SYSTEM AND PREPARATION METHOD THEREOF” (SZEGEDI TUDOMÁNYEGYETEM, priority 2021, published 2026).

Holding throughout (type): physicochemical
The nature of data set [1]: in-vitro drug-releasing profile of HBA. Particulars: FIG. 18.
The nature of data set [2]: in vitro DOX release through cellulose membrane into PBS buffer. As to the method:
The DOX release was measured according to the following: the in vitro experiments of the DOX releasing were performed using a cellulose membrane (Sigma-Aldrich, avg. flat width 10 mm (0.4 in.)). The released DOX amount from the bare and conjugated form was spectrophotometrically measured by monitoring the change in the intensity of the characteristic absorbance peak of DOX at λ=481 nm. DOX concentration is directly proportional to the maximal absorption values estimated at 481 nm [CDOX (mg/ml) (A at 481 nm)/18.836; R^2=0.996], according to the calibration curve previously determined within the range of 0-0.066 mg/ml. Solid powder of pure drug and conjugated form (corresponding to 0.045 mg/ml of DOX) were inserted in a cellulose membrane that was closed and dropped into 20 ml of a PBS buffer solution with pH=7.4 (37° C.; 0.9 wt % NaCl content). 3 ml of the aqueous solution was pulled from the release media at selected interval times and DOX concentration was measured. The release profiles of DOX released from different forms are shown in FIG. 14a in percent form and FIG. 14b in concentration form, releasing from the bare DOX was too fast a process with a maximum releasing percent of 78%. […] According to Table 2, releasing from the bare DOX data were fitted with the Higuchi model that describes the drug release a diffusion process based on Fick's law which is square root time-dependent, assumes the diffusivity of the drug is constant.

Data set [3] is described as follows: in-vitro drug-releasing profile of KETO. Conditions: FIG. 17.

Molecules are shown by their SMILES.

With `OCc1ccc(O)cc1` [Bare HBA, 4-hydroxybenzyl alcohol], the HBA releasing process result in data set [1] was “very rapid release process for the first 3 h”.
Regarding `COc1cccc2c1C(=O)c1c(O)c3c(c(O)c1C2=O)C[C@@](O)(C(=O)CO)C[C@@H]3O[C@H]1C[C@H](N)[C@H](O)[C@H](C)O1` [Pure DOX, doxorubicin], the “concentration of DOX in PBS buffer solution after one day (decomposition)” value in data set [2] (PBS at 37° C., after one day of release) is reported as “continuously decreased”. The maximum releasing percent in data set [2] (PBS pH=7.4, 37° C., 0.9 wt % NaCl, cellulose membrane) was found to be 78%. In data set [2] (fit of DOX release data), the First-order model k is on record as 0.2689, the Higuchi model k was 36.808, the Hixson-Crowell model k is recorded as 0.0063 and the Korsmeyer-Peppas model k is reported as 26.18. Besides, in data set [2] (fit of DOX release data), the “Korsmeyer-Peppas model n (release exponent)” value was determined as 0.763 and the Zero-order model k is recorded as 13.11.
Take `CC(C(=O)O)c1cccc(C(=O)c2ccccc2)c1` (stereo not shown) [bare KETO, ketoprofen]: the KETO releasing process entry in data set [3] is “fast releasing process for the first 5 h”.
